Data taken from PubChem BioAssay (NCI).
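Test compounds were applied to cells in 96-well plates for 48 hours at 5 doses. At the GI50, growth is halved. At the TGI there is no net growth.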

Tests used:
Assay in all cases: NCI-60 cell line screen, 48 h
[1] = tested on: NCI-H460 lung
[2] = tested on: UO-31 renal
[3] = tested on: NCI-H522 lung
[4] = tested on: OVCAR-5 ovarian
[5] = tested on: SK-MEL-2 melanoma
[6] = tested on: MDA-MB-231 breast
[7] = tested on: SF-295 CNS
[8] = tested on: SN12C renal
[9] = tested on: CAKI-1 renal
[10] = tested on: SK-MEL-5 melanoma
[11] = tested on: SNB-75 CNS
[12] = tested on: UACC-257 melanoma
[13] = tested on: PC-3 prostate
[14] = tested on: OVCAR-8 ovarian
[15] = tested on: SK-OV-3 ovarian
[16] = tested on: ACHN renal
[17] = tested on: T-47D breast
[18] = tested on: K-562 leukemia
[19] = tested on: SF-268 CNS
[20] = tested on: HT29 colon
[21] = tested on: A498 renal
[22] = tested on: LOX IMVI melanoma
[23] = tested on: IGROV1 ovarian
[24] = tested on: RPMI-8226 leukemia
[25] = tested on: MCF7 breast
[26] = tested on: OVCAR-3 ovarian
[27] = tested on: EKVX NSCLC
[28] = tested on: U251 CNS
[29] = tested on: HCT-116 colon
[30] = tested on: MDA-MB-435
[31] = tested on: A549 NSCLC
[32] = tested on: BT-549 breast
[33] = tested on: HL-60(TB) leukemia
[34] = tested on: UACC-62 melanoma
[35] = tested on: HS 578T breast
[36] = tested on: NCI-H226 lung
[37] = tested on: OVCAR-4 ovarian
[38] = tested on: TK-10 renal
[39] = tested on: SNB-19 CNS
[40] = tested on: HOP-92 NSCLC
[41] = tested on: MOLT-4 leukemia
[42] = tested on: COLO 205 colon
[43] = tested on: M14 melanoma
[44] = tested on: HCT-15 colon
[45] = tested on: SF-539 CNS
[46] = tested on: 786-0 renal
[47] = tested on: RXF 393 renal
[48] = tested on: NCI/ADR-RES ovarian
[49] = tested on: HOP-62 NSCLC
[50] = tested on: SW-620 colon
[51] = tested on: DU-145 prostate
[52] = tested on: SK-MEL-28 melanoma
[53] = tested on: NCI-H23 lung
[54] = tested on: MALME-3M melanoma
[55] = tested on: CCRF-CEM leukemia
[56] = tested on: HCC-2998 colon
[57] = tested on: KM12 colon

SMILES: O=C(COc1cccc(/C=C2\Oc3ccc4ccccc4c3C2=O)c1)c1ccc(Cl)cc1
- GI50 [1]: > 100 µM
- TGI [1]: > 100 µM
- GI50 [2]: 50.2 µM
- TGI [2]: > 100 µM
- GI50 [3]: 6.3 µM
- TGI [3]: 23.2 µM
- GI50 [4]: > 100 µM
- TGI [4]: > 100 µM
- GI50 [5]: > 100 µM
- TGI [5]: > 100 µM
- GI50 [6]: 43.5 µM
- TGI [6]: > 100 µM
- GI50 [7]: > 100 µM
- TGI [7]: > 100 µM
- GI50 [8]: 16.8 µM
- TGI [8]: 37.5 µM
- GI50 [9]: > 100 µM
- TGI [9]: > 100 µM
- GI50 [10]: 79.2 µM
- TGI [10]: > 100 µM
- GI50 [11]: 29.4 µM
- TGI [11]: 99.4 µM
- GI50 [12]: > 100 µM
- TGI [12]: > 100 µM
- GI50 [13]: 52.1 µM
- TGI [13]: > 100 µM
- GI50 [14]: 15.4 µM
- TGI [14]: 41.9 µM
- GI50 [15]: > 100 µM
- TGI [15]: > 100 µM
- GI50 [16]: > 100 µM
- TGI [16]: > 100 µM
- GI50 [17]: 15.3 µM
- TGI [17]: 52.4 µM
- GI50 [18]: 10.8 µM
- TGI [18]: 25.5 µM
- GI50 [19]: 23.1 µM
- TGI [19]: 79.5 µM
- GI50 [20]: > 100 µM
- TGI [20]: > 100 µM
- GI50 [21]: > 100 µM
- TGI [21]: > 100 µM
- GI50 [22]: 8.7 µM
- TGI [22]: 21.9 µM
- GI50 [23]: 0.246 µM
- TGI [23]: 9.14 µM
- GI50 [24]: 1.66 µM
- TGI [24]: 6.62 µM
- GI50 [25]: 10.7 µM
- TGI [25]: 22.6 µM
- GI50 [26]: 19.8 µM
- TGI [26]: 48.6 µM
- GI50 [27]: > 100 µM
- TGI [27]: > 100 µM
- GI50 [28]: 27.2 µM
- TGI [28]: > 100 µM
- GI50 [29]: 2.97 µM
- TGI [29]: 10.5 µM
- GI50 [30]: 51 µM
- TGI [30]: > 100 µM
- GI50 [31]: > 100 µM
- TGI [31]: > 100 µM
- GI50 [32]: 20.5 µM
- TGI [32]: 61.7 µM
- GI50 [33]: 16.1 µM
- TGI [33]: 90.9 µM
- GI50 [34]: 81.9 µM
- TGI [34]: > 100 µM
- GI50 [35]: 50 µM
- TGI [35]: > 100 µM
- GI50 [36]: 70.6 µM
- TGI [36]: > 100 µM
- GI50 [37]: 5.56 µM
- TGI [37]: > 100 µM
- GI50 [38]: > 100 µM
- TGI [38]: > 100 µM
- GI50 [39]: > 100 µM
- TGI [39]: > 100 µM
- GI50 [40]: > 100 µM
- TGI [40]: > 100 µM
- GI50 [41]: 3.13 µM
- TGI [41]: 11.1 µM
- GI50 [42]: 33.6 µM
- TGI [42]: > 100 µM
- GI50 [43]: 18.1 µM
- TGI [43]: 43 µM
- GI50 [44]: 33 µM
- TGI [44]: > 100 µM
- GI50 [45]: > 100 µM
- TGI [45]: > 100 µM
- GI50 [46]: 4.54 µM
- TGI [46]: 19 µM
- GI50 [47]: 25 µM
- TGI [47]: 61.6 µM
- GI50 [48]: > 100 µM
- TGI [48]: > 100 µM
- GI50 [49]: 7.09 µM
- TGI [49]: 32.4 µM
- GI50 [50]: 11.7 µM
- TGI [50]: 88.3 µM
- GI50 [51]: 39.6 µM
- TGI [51]: > 100 µM
- GI50 [52]: > 100 µM
- TGI [52]: > 100 µM
- GI50 [53]: 30.5 µM
- TGI [53]: > 100 µM
- GI50 [54]: 22.4 µM
- TGI [54]: > 100 µM
- GI50 [55]: 2.92 µM
- TGI [55]: 8.39 µM
- GI50 [56]: > 100 µM
- TGI [56]: > 100 µM
- GI50 [57]: 30.2 µM
- TGI [57]: > 100 µM
